Test results published in patent US20070128217A1 (priority 2003, published 2007).

Experiments:
[1] = tested on: recombinant human anti-SARS-CoV antibody 03-018; format: binding; parameters: Binding of antibody 03-018 to linear peptides of the N protein of SARS-CoV Urbani / Binding of antibody 03-018 to looped/cyclic peptides of the N protein of SARS-CoV Urbani: unit not given here
[2] = tested on: antibodies in sera from SARS patients (sera 1a, 1b, 2, 6, 37, 62, London, SARS-yellow, SARS-green); format: binding, human; parameters: Binding of serum 6 to linear peptides of protein X1 of SARS-CoV Urbani / Binding of serum 37 to linear peptides of protein X1 of SARS-CoV Urbani / Binding of serum 6 to looped/cyclic peptide (PEPSCAN-ELISA) / Binding of serum 37 to looped/cyclic peptide (PEPSCAN-ELISA) / Binding of serum 37 to looped/cyclic peptides of protein X1 of SARS-CoV Urbani / Binding of serum 6 to linear peptides of protein X2 / Binding of serum 37 to linear peptides of protein X2 / Binding of serum 37 to looped/cyclic peptides of protein X2 of SARS-CoV Urbani / Binding of serum 6 to linear peptides of protein M of SARS-CoV Urbani / Binding of serum 37 to linear peptides of protein M of SARS-CoV Urbani / Binding of serum 6 to looped/cyclic peptides of protein M of SARS-CoV Urbani / Binding of serum 37 to looped/cyclic peptides of protein M of SARS-CoV Urbani / Binding of serum 6 to linear peptides of protein X3 of SARS-CoV Urbani / Binding of serum 37 to linear peptides of protein X3 of SARS-CoV Urbani / Binding of serum 37 to looped/cyclic peptides of protein X3 of SARS-CoV Urbani / Binding of serum 6 to linear peptides of protein X4 of SARS-CoV Urbani / Binding of serum 37 to linear peptides of protein X4 of SARS-CoV Urbani / Binding of serum 37 to looped/cyclic peptides of protein X4 of SARS-CoV Urbani / Binding of serum 6 to linear peptides of protein X5 of SARS-CoV Urbani / Binding of serum 37 to linear peptides of protein X5 of SARS-CoV Urbani / Binding of serum 37 to looped/cyclic peptides of protein X5 of SARS-CoV Urbani / Binding of serum 6 to linear peptides of protein N of SARS-CoV Urbani / Binding of serum 37 to linear peptides of protein N of SARS-CoV Urbani / Binding of serum 6 to linear peptide (PEPSCAN-ELISA) / Binding of serum 1a to looped/cyclic peptides of protein N of SARS-CoV Urbani / Binding of serum 1b to looped/cyclic peptides of protein N of SARS-CoV Urbani / Binding of serum 2 to looped/cyclic peptides of protein N of SARS-CoV Urbani / Binding of serum 6 to looped/cyclic peptides of protein N of SARS-CoV Urbani / Binding of serum 37 to looped/cyclic peptides of protein N of SARS-CoV Urbani / Binding of serum 62 to looped/cyclic peptides of protein N of SARS-CoV Urbani / Binding of serum London to looped/cyclic peptides of protein N of SARS-CoV Urbani / Binding of serum SARS-green to looped/cyclic peptides of protein N of SARS-CoV Urbani: unit not given here
[3] = tested on: rabbit serum obtained by immunizing a rabbit with the SARS-CoV strain Frankfurt 1; format: binding; parameters: Binding of a rabbit serum to linear peptides / Binding of a rabbit serum to looped peptides / Rabbit serum linear peptides / Rabbit serum looped peptides / Binding of a rabbit serum to linear peptides of protein N of SARS-CoV Urbani (Rabbit serum linear peptides) / Binding of a rabbit serum to looped/cyclic peptides of protein N of SARS-CoV Urbani (Rabbit serum looped peptides): unit not given here
[4] = tested on: control sera (pooled serum of ten healthy LUMC hospital workers; commercial negative donor pooled serum from the Dutch bloodbank); format: binding, human; parameters: Binding of Control serum LUMC to linear peptides / Binding of Control serum Blood-bank to linear peptides / Binding of Control serum LUMC to looped peptides / Binding of Control Serum Blood-Bank to Looped peptides / Binding of Control serum LUMC to linear peptides of the protein M of SARS-CoV Urbani / Binding of Control serum Blood-bank to linear peptides of the protein M of SARS-CoV Urbani / Binding of Control serum LUMC to looped peptides of the protein M of SARS-CoV Urbani / Binding of Control Serum Blood-Bank to Looped peptides of the protein M of SARS-CoV Urbani: unit not given here

| Sequence | Recognition of the peptide by antibody 03-018 [1] | Binding of serum 1a to linear peptides of protein N of SARS-CoV Urbani [2] | Binding of serum 1a to looped/cyclic peptides of protein N of SARS-CoV Urbani [2] | Binding of serum 1b to linear peptides of protein N of SARS-CoV Urbani [2] | Binding of serum 1b to looped/cyclic peptides of protein N of SARS-CoV Urbani [2] | Binding of serum 2 to linear peptides of protein N of SARS-CoV Urbani [2] | Binding of serum 2 to looped/cyclic peptides of protein N of SARS-CoV Urbani [2] | Binding of serum 6 to linear peptides of protein N of SARS-CoV Urbani [2] | Binding of serum 6 to looped/cyclic peptides of protein N of SARS-CoV Urbani [2] | Binding of serum 37 to looped/cyclic peptides of protein N of SARS-CoV Urbani [2] | Binding of serum 62 to looped/cyclic peptides of protein N of SARS-CoV Urbani [2] | Binding of serum London to looped/cyclic peptides of protein N of SARS-CoV Urbani [2] | Binding of serum SARS-green to looped/cyclic peptides of protein N of SARS-CoV Urbani [2] | Binding of serum SARS-yellow to looped/cyclic peptides of protein N of SARS-CoV Urbani [2] | Binding of a rabbit serum to linear peptides of protein N of SARS-CoV Urbani (Rabbit serum linear peptides) [3] | Binding of a rabbit serum to looped/cyclic peptides of protein N of SARS-CoV Urbani (Rabbit serum looped peptides) [3] | Binding of Control Serum Blood-Bank to Looped peptides [4] | Binding of Control serum Blood-bank to linear peptides [4] | Binding of Control serum LUMC to linear peptides [4] | Binding of Control serum LUMC to looped peptides [4] | further results |
| --- | --- | --- | --- | --- | --- | --- | --- | --- | --- | --- | --- | --- | --- | --- | --- | --- | --- | --- | --- | --- | --- |
| SAPRITFGGPTDSTD | recognized | 0.2 | 0.3 | 0.2 | 0.2 | 0.1 | 0.2 | 0.1 | 0.1 | 0.5 | 0.3 | 0.3 | 0.9 | 0.4 | 0.2 | 0.5 | 0.5 | 0.4 | 0.5 | 0.4 | Binding of serum 37 to linear peptides of protein N of SARS-CoV Urbani [2]: 0.7; Binding of serum 62 to linear peptides of protein N of SARS-CoV Urbani [2]: 0.6; Binding of serum London to linear peptides of protein N of SARS-CoV Urbani [2]: 0.5; Binding of serum SARS-green to linear peptides of protein N of SARS-CoV Urbani [2]: 0.6; Binding of serum SARS-yellow to linear peptides of protein N of SARS-CoV Urbani [2]: 0.4 |
| RSAPRITFGGPTDST | recognized | 0.2 | 0.3 | 0.1 | 0.2 | 0.1 | 0.3 | 0.1 | 0.2 | 0.5 | 0.4 | 0.3 | 0.4 | 0.5 | 0.3 | 0.7 | 0.6 | 0.6 | 0.5 | 0.6 | Binding of serum 37 to linear peptides of protein N of SARS-CoV Urbani [2]: 0.6; Binding of serum 62 to linear peptides of protein N of SARS-CoV Urbani [2]: 0.6; Binding of serum London to linear peptides of protein N of SARS-CoV Urbani [2]: 0.5; Binding of serum SARS-green to linear peptides of protein N of SARS-CoV Urbani [2]: 0.4; Binding of serum SARS-yellow to linear peptides of protein N of SARS-CoV Urbani [2]: 0.5 |
| SQASSRSSSRSRGNS |  |  | 0.3 |  | 0.2 |  | 0.3 |  | 0.2 | 0.5 | 0.4 | 0.4 | 0.0 | 0.3 | 0.1 | 0.6 | 0.6 | 0.7 | 0.7 | 0.6 | Binding of antibody 03-018 to linear peptides of the N protein of SARS-CoV Urbani [1]: 0.1; Binding of antibody 03-018 to looped/cyclic peptides of the N protein of SARS-CoV Urbani [1]: 0.2; Binding of serum 1a to linear peptide (PEPSCAN-ELISA) [2]: 0.2; Binding of serum 1b to linear peptide (PEPSCAN-ELISA) [2]: 0.1; Binding of serum 2 to linear peptide (PEPSCAN-ELISA) [2]: 0.2; Binding of serum 6 to linear peptide (PEPSCAN-ELISA) [2]: 0.4; Binding of serum 37 to linear peptide (PEPSCAN-ELISA) [2]: 0.6; Binding of serum 62 to linear peptide (PEPSCAN-ELISA) [2]: 0.6; Binding of serum London to linear peptide (PEPSCAN-ELISA) [2]: 0.4; Binding of serum SARS-green to linear peptide (PEPSCAN-ELISA) [2]: 0.2; Binding of serum SARS-yellow to linear peptide (PEPSCAN-ELISA) [2]: 0.6 |
| GNSRNSTPGSSRGNS |  |  | 0.6 |  | 0.5 |  | 0.4 |  | 0.4 | 0.5 | 0.5 | 0.3 | 0.1 | 0.5 | 0.2 | 0.8 | 0.6 | 0.8 | 0.7 | 0.7 | Binding of antibody 03-018 to linear peptides of the N protein of SARS-CoV Urbani [1]: 0.1; Binding of antibody 03-018 to looped/cyclic peptides of the N protein of SARS-CoV Urbani [1]: 0.2; Binding of serum 1a to linear peptide (PEPSCAN-ELISA) [2]: 0.7; Binding of serum 1b to linear peptide (PEPSCAN-ELISA) [2]: 0.5; Binding of serum 2 to linear peptide (PEPSCAN-ELISA) [2]: 0.2; Binding of serum 6 to linear peptide (PEPSCAN-ELISA) [2]: 0.2; Binding of serum 37 to linear peptide (PEPSCAN-ELISA) [2]: 0.7; Binding of serum 62 to linear peptide (PEPSCAN-ELISA) [2]: 0.7; Binding of serum London to linear peptide (PEPSCAN-ELISA) [2]: 0.5; Binding of serum SARS-green to linear peptide (PEPSCAN-ELISA) [2]: 0.2; Binding of serum SARS-yellow to linear peptide (PEPSCAN-ELISA) [2]: 0.7 |
